# According to patent EP3283473B1, “GHRELIN O-ACYL TRANSFERASE INHIBITORS” (Eli Lilly and Company, priority 2015, dated 2016):
# Target: T1, human GOAT (Homo sapiens, UniProt Q96T53)
# T1 construct: His; made in house; host or cells: Sf9 insect cells (baculovirus, pAN51 vector); microsomal membrane preparation
# T1 sequence (Q96T53 1-435): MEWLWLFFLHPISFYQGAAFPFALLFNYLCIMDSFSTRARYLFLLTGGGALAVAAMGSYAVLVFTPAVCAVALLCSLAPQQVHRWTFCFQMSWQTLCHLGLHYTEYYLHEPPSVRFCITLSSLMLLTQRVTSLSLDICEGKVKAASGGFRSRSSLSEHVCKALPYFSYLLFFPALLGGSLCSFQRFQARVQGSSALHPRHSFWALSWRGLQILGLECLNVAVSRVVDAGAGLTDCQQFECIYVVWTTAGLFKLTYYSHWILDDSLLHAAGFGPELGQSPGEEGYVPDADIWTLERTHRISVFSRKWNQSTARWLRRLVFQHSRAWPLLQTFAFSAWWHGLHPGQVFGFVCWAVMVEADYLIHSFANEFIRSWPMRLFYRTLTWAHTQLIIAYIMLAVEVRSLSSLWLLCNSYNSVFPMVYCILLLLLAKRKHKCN
# Test: In vitro cell free human GOAT enzymatic assay
# Assay type: biochemical
# Conditions: GOAT-His/sf9 membrane preparation
# Description: Human GOAT gene (Accession number: NM_001100916) is subcloned to pAN51 baculoviral expression vector. Baculovirus stock is prepared following the Bac-to-Bac Protocol provided by the vendor, Invitrogen, California, USA. Five mililiters of human GOAT baculoviral stock are added to 500 mL Sf9 cells in HyQ SFX-Insect™ media (HyClone catalog number SH30278.02) at the density of 1 × 10^6 cells per milliliter in a 2 L Erlenmeyer flask. The flask with human GOAT gene infected Sf9 cells is put on a plate shaker at 120 rpm at 28 °C for 48 hours. After 48 hours incubation, cells are centrifuged at 1,000xg for 10 min at 4 °C. The cell pellets are collected and stored at -80 °C in a freezer until ready for further processing.
# One gram cell pellets are suspended in 9 mL chilled homogenization buffer (50 mM Tris-HCl, 250 mM sucrose, adjusted to pH 7.5 and sterile filtered through 0.2 µm Millipore filter). The cell suspension is transferred to a Dounce glass homogenizer. Cell pellets are homogenized with 40 strokes on ice. The homogenate is centrifuged at 3,000 rpm in a Beckman swing bucket rotor at 4 °C for 10 min to remove unbroken cells. The supernatant is collected and centrifuged at 40,000 xg for 1 hour at 4 °C. The resulting membrane pellet is suspended in the homogenization buffer using a Dounce glass homogenizer and stored at -20 °C in the freezer for the assay. For long term storage of the human GOAT enzyme membrane preparation, the suspended membrane is stored in a -80 °C freezer.
# Prepare test compounds in DMSO to make up a 0.2 mM stock solution. Serially dilute the stock solution in DMSO to obtain a ten-point dilution curve with final compound concentrations ranging from 10 µM to 0.5 nM in a 96-well round-bottom plate. Prepare enzyme and substrate solutions in assay buffer (0.02% TWEEN™-20 in 50 mM Tris, pH 7.5/250 mM sucrose/1 mg/mL BSA/10 mM EDTA). Add diluted compound (1 µL) to each well of row A to N of a corresponding low protein binding 384 well plate. Add human GOAT substrate mix (10 µL), consisting of human desacyl-ghrelin-biotin (CPC Scientific Inc., 6.0 µM final), octanoyl-coenzyme A (CoA) (Sigma, 60 µM final) and an AG specific antibody (WO 2006/091381)(1.0 µg/mL final), to the compounds. Add GOAT-His/sf9 enzyme preparation, that has been prepared in assay buffer (9 µL), to each well of the plate containing substrate and test compounds resulting in a final concentration of 0.01 µg/mL to initiate the reaction. Incubate the mixture for 1 hour at RT on a gently rotating oscillator. Add 4M guanidine hydrochloride (20 µL) to all wells, mix, and incubate for 3 hours to stop the reaction.
# Prepare ELISA plates (STREPTAVIDIN SPECTRAPLATE™ 384, Perkin Elmer) by blocking with 2% Heat-Inactivated FBS in PBS (40 µL) (Invitrogen) blocking buffer for 3 hours. Aspirate the blocking buffer from ELISA plate and add blocking buffer (23 µL) to columns 1-24, rows A-N. Reserve rows O and P for the acylghrelin standard curve. Add the reaction mix (2 µL) to the ELISA plates. Prepare a 10 point standard curve (biotin-labeled octanoyl-ghrelin) by serial 2X dilution in blocking buffer containing 0.2M Guanidine hydrochloride starting at 2.5 pM. Incubate the reaction mixture or biotin-labeled AG standard in the ELISA plate overnight at 4 °C. The following day, wash the plate 3× with wash buffer (0.1% TWEEN™-20/PBS, 100 µL per well in each wash cycle). […] Read plates at 450 nm using an ENVISION® Multilabel plate reader. […]
row,SMILES,IC20 [µM]
1,"Cc1nc(C(F)(F)F)nc(N)c1CCC1CCN(C(=O)[C@H](C)NC(=O)CO)CC1 [Example 18, N-[(1S)-2-[4-[2-[4-Amino-6-methyl-2-(trifluoromethyl)pyrimidin-5-yl]ethyl]-1-piperidyl]-1-methyl-2-oxo-ethyl]-2-hydroxy-acetamide]",0.276
2,"COc1ccccc1C(=O)N[C@@H](C)C(=O)N1CCC(CCc2c(C)nc(C(F)(F)F)nc2N)CC1 [Example 17, N-[(1S)-2-[4-[2-[4-Amino-6-methyl-2-(trifluoromethyl)pyrimidin-5-yl]ethyl]-1-piperidyl]-1-methyl-2-oxo-ethyl]-2-methoxy-benzamide]",0.42
3,"Cc1nc(C(F)(F)F)nc(N)c1CCC1CCN(C(=O)[C@H](C)NC(=O)c2nccnc2Cl)CC1 [Example 15, N-[(1S)-2-[4-[2-[4-Amino-6-methyl-2-(trifluoromethyl)pyrimidin-5-yl]ethyl]-1-piperidyl]-1-methyl-2-oxo-ethyl]-3-chloro-pyrazine-2-carboxamide]",0.0557
4,"COC(=O)N[C@@H](C)C(=O)N1CCC(CCc2c(C)nc(C(F)(F)F)nc2N)CC1 [Example 20, Methyl N-[(1S)-2-[4-[2-[4-amino-6-methyl-2-(trifluoromethyl)pyrimidin-5-yl]ethyl]-1-pipaidyl]-1-methyl-2-oxo-ethyl]carbamate]",0.615
